Experiments:
primary rat Leydig cells [1] = assay: hCG-stimulated testosterone production in primary rat Leydig cells treated with dexamethasone with or without glucocorticoid receptor antagonist (Elisa); assay type: cell-based; details: for Testosterone Production, Average value ± SD (%): hCG alone = 100, basal = 0
Method: (§1) Testicular cells were prepared from the testicles of sexually mature, 12-week old, male Wistar rats by means of a collagenase treatment. Leydig cells were obtained from this preparation by a continuous Percoll gradient centrifugation.
(§2) Freshly prepared Leydig cells were sown in microtiter plates in 100 μL of DMEM/F12 with phenol red (20,000) cells/well) with addition of 0.1% BSA, penicillin (100 U/ml) and streptomycin (100 μg/ml). After one hour, the medium was changed with addition of substance. For 18 hours, the Leydig cells were incubated with dexamethasone alone or together with glucocorticoid receptor antagonists (250 μL of DMEM/well with addition of penicillin (100 U/ml) and streptomycin (100 μg/ml)). […] Ethanol was used as solvent for dexamethasone and the glucocorticoid receptor antagonists; the final concentration of the ethanol was not more than 0.2%.
Aliquots of the supernatant were frozen at −70° C. Testosterone was measured with a commercial Elisa (IBL, Hamburg). The standard curve of testosterone Elisa was then adapted to the cell culture conditions.

primary rat Leydig cells [2] = assay: Cell damage: activity of mitochondrial succinate dehydrogenase (WST-1 test) in primary rat Leydig cell cultures; assay type: cell-based
Method: as §1, §2
Parallel to the testosterone measurement, cell damage was determined after the 26 hours by measuring the activity of the mitochondrial succinate dehydrogenase (WST-1 test, Böhringer, Mannheim).

[3] = system: male rats of the CD breeding line; assay: Male sexual behavior of rats after chronic dexamethasone treatment with or without RU 38486; assay type: in vivo, rat; details: for Male Sexual Behavior (Copulations in 5 minutes): day 9, average ± standard error
Method: (§3) Sexually mature, 3-month old male rats of the CD breeding line (Charles River GmbH, Sulzfeld, Germany) were kept in groups of 4 animals under controlled illumination (light:darkness 12:12 hours) with free access to food and drinking water. After a 1-week adaptation, the animals were tested by exposure to ovarectomized, estrogen-treated females for the presence of male sexual behavior (G. Dörner, Hormones and brain differentiation, Elsevier, Amsterdam, 1976, pp. 126-132). […] The animals of the reference group received intraperitoneal injections of dexamethasone (Fortecortin: Merck, Darmstadt, Germany) daily according to the following schedule: 0.5 mg/kg on days 1 to 3, 1 mg/kg on days 4 to 6 and 1.5 mg/kg on days 7 to 9. The control animals were injected with placebo (0.9% sterile NaCl solution. In addition to the dexamethasone treatment, the experimental group received subcutaneous injections of the glucocorticoid receptor antagonist RU 38486 (Sigma, Deisenhofen, Germany) in sesame oil solution in a dose of 10 mg/kg daily according to the schedule given above.
(§4) Male sexual behavior was evaluated on the ninth day by the method given above. After the behavior test, blood samples were taken from the retroorbital plexus for determining the serum testosterone level. The testosterone was determined with a commercial test formulation (IBL, Hamburg, Germany).

[4] = system: male rats of the CD breeding line; assay: Serum testosterone level of rats after chronic dexamethasone treatment with or without RU 38486; assay type: in vivo, rat; details: for Serum Testosterone: day 9, average ± standard error
Method: as §3, §4

[5] = hCG 0.5 ng/ml + 100 nM DEX alone
[6] = dexamethasone alone i.p. 0.5-1.5 mg/kg daily for 9 days
[7] = hCG 0.5 ng/ml + 100 nM DEX + glucocorticoid receptor antagonist 1 μm
[8] = hCG + 100 nM DEX + glucocorticoid receptor antagonist 1 μm
[9] = dexamethasone i.p. 0.5-1.5 mg/kg daily for 9 days + RU 38486 s.c. 10 mg/kg daily
[10] = simultaneous administration of dexamethasone and RU 38486

Row | Structure (SMILES) | Testosterone Production, Average value ± SD (primary rat Leydig cells [1]; [7]) [ng/mL] | Testosterone Production, Average value ± SD (%) (primary rat Leydig cells [1]; [7]) | Succinate Dehydrogenase Activity, Average value ± SD (primary rat Leydig cells [2]; [8]) [Absorptions Units] | further results
1 | C[C@@H]1C[C@H]2[C@@H]3CCC4=CC(=O)C=C[C@]4(C)[C@@]3(F)[C@@H](O)C[C@]2(C)[C@@]1(O)C(=O)CO [DEX, dexamethasone] | – | – | – | Testosterone Production, Average value ± SD (primary rat Leydig cells [1]; [5]): 2.00 ± 0.58P ng/ml; Testosterone Production, Average value ± SD (%) (primary rat Leydig cells [1]; [5]): 44.63 ± 14.08P %; Effect on mitochondrial succinate dehydrogenase activity (in words) (primary rat Leydig cells [2]; dexamethasone 10^-7 M): significant inhibition of the mitochondrial activity; Succinate Dehydrogenase Activity, Average value ± SD (primary rat Leydig cells [2]; [5]): 0.192 ± 0.036 Absorptions Units; Male Sexual Behavior (Copulations in 5 minutes) [3, 6]: 4.0 ± 0.9 Copulations in 5 minutes; Serum Testosterone [4, 6]: 2.3 ± 0.2 ng/mL
2 | COCC1(OC)CCC2C3CCC4=CC(=O)CCC4=C3C(c3ccc(C(=NO)C(F)(F)F)cc3)CC21C (stereo not drawn) [GRA1, 4-(17β-methoxy-17α-(methoxymethyl)-estra-4,9-diene-3-one-11β-yl]2,2,2-trifluoroacetophenone-1(Z)-oxime] | 3.57 ± 0.83 | 83.00 ± 20.40 | 0.289 ± 0.040 | –
3 | C[C@]12C[C@H](c3ccc4c(c3)OCO4)C3=C4CCC(=O)C=C4CC[C@H]3[C@@H]1CC[C@@]2(O)C#Cc1ccc(S(C)(=O)=O)cc1 [GRA2] | 3.48 ± 0.64 | 80.97 ± 15.47 | 0.363 ± 0.032 | –
4 | CC12CC(c3ccc(C=NO)cc3)C3=C4CCC(=O)C=C4CCC3C1CCC2(O)C#Cc1ccc(S(C)(=O)=O)cc1 (stereo not drawn) [GRA3, 4-[17β-hydroxy-17α,21-(4′-methylsulfonylphenyl)-19-nor-3-oxopregna-4,9-diene-20-yn-11β-yl]benzaldehyde-1(E)-oxime] | 4.52 ± 1.01 | 106.30 ± 24.75 | 0.313 ± 0.018 | –
5 | CC#C[C@]1(O)CC[C@H]2[C@@H]3CCC4=CC(=O)CCC4=C3[C@@H](c3ccc(N(C)C)cc3)C[C@@]21C [RU38486, 11β-dimethylaminophenyl-17β-hydroxy-17α-propinyl-estra-4,9-diene-3-one] | 4.48 ± 1.14 | 105.23 ± 27.83 | 0.311 ± 0.031 | Male Sexual Behavior (Copulations in 5 minutes) [3, 9]: 9.2 ± 1.0 Copulations in 5 minutes; Effect on male sexual behavior (in words) [3, 10]: retention of male sexual behavior at the level of the placebo group; Serum Testosterone [4, 9]: 20.2 ± 4.9 ng/mL; Effect on serum testosterone concentration (in words) [4, 10]: prevented the reduction in the serum testosterone concentration
